# Laboratory results reported in patent US5245034A, “Compound having vessel smooth muscle relaxation activity” (Hidaka; Kiroyoshi, priority 1988, dated 1993).
# Read-outs that look alike come from different tables or passages of the source.
# Tested on: superior mesenteric artery (contracted by potassium chloride)
# Assay: Vessel Smooth Muscle Relaxation Action (V.R.)
# Format: cell-based, rabbit
# Settings: concentration relaxing KCl-contracted strain to 50%, cumulative administration, read-out: V.R. (ED50)
# Description: The specimen was suspended by loading a strain in Krebs-Henseleit solution through which an oxygen gas containing 5% carbon dioxide was bubbled. The specimen was contracted by adding potassium chloride to maintain a predetermined strain. Thereafter, a test compound was cumulatively administrated.
SMILES,EC50 (Oryctolagus cuniculus),EC50
"COc1ccc(N2CCN(CC(Cc3ccc(NS(=O)(=O)c4cccc5cnccc45)cc3)N(C)S(=O)(=O)c3cccc4cnccc34)CC2)cc1 (stereo not shown) [Example 129, N-{1-[p-(5-isoquinolinesulfonylaminobenzyl)]-2-[4-(p-methoxyphenyl)piperazinyl]ethyl}-N-methyl-5-isoquinolinesulfonamide]",0.82 µM,–
"O=S(=O)(NCCN(CC#Cc1ccc(Cl)cc1)CC#Cc1ccc(Cl)cc1)c1cccc2cnccc12 [Example 189-II, N-{2-[Bis-(3-((4-Chlorophenyl))-2-Propynyl)Amino]Ethyl}-5-Isoquinolinesulfonamide]",0.2 µM,–
"CN(C(Cc1ccc(O)cc1)CN1CCN(C(=O)OCc2ccccc2)CC1)S(=O)(=O)c1cccc2ccccc12 (stereo not drawn) [Example 79, N-[2-(4-benzyloxycarbonylpiperazinyl)-1-(p-hydroxybenzyl)ethyl]-N-methyl-α-naphtharenesulfonamide]",5.5 µM,–
"CN(C(Cc1ccc(O)cc1)CN1CCC(NCc2ccccc2)CC1)S(=O)(=O)c1cccc2cnccc12 (stereo not shown) [Example 98, N-{2-[4-(N-benzylamino)piperidino]-1-(p-hydroxybenzyl)ethyl}-N-methyl-5-isoquinolinesulfonamide]",22 µM,–
COc1ccc(CC(CN2CCC(O)CC2)N(C)S(=O)(=O)c2cccc3cnccc23)cc1 (stereo not shown) [Example 101],29 µM,–
"CC(=O)Oc1ccc(CC(CN2CCC(OC(C)=O)CC2)N(C)S(=O)(=O)c2cccc3cnccc23)cc1 (stereo not shown) [Example 102, N-[1-(P-Acetoxybenzyl)-2-(4-Acetoxypiperidino)Ethyl]-N-Methyl-5-Isoquinolinesulfonamide]",24 µM,–
"COc1ccc(N2CCN(CC(Cc3ccc(NS(=O)(=O)c4cccc5cnccc45)cc3)NS(=O)(=O)c3cccc4cnccc34)CC2)cc1 (stereo not shown) [Example 130, N-{1-[p-(5-isoquinolinesulfonylaminobenzyl)]-2-[4-(p-methoxyphenyl]piperazinyl]ethyl}-5-isoquinolinesulfonamide]",13 µM,–
"COc1cc(C=CCNCCNS(=O)(=O)c2cccc3cnccc23)cc(OC)c1OC [Example 185, N-[2-(3,4,5-Trimethoxycinnamylamino)ethyl]-5-Isoquinolinesulfonamide]",0.21 µM,–
"COc1ccc(N2CCN(CC(Cc3ccc(O)cc3)N(C)S(=O)(=O)c3cccc4cnccc34)CC2)cc1 (stereo not shown) [Example 54, N-{1-(p-hydroxybenzyl)-2-[4-(p-methoxyphenyl)piperazinyl]ethyl}-N-methyl-5-isoquinolinesulfonamide]",1.7 µM,–
CN(C(Cc1ccc(OS(=O)(=O)c2cccc3cnccc23)cc1)CN1CCN(c2ccc(F)cc2)CC1)S(=O)(=O)c1cccc2cnccc12 (stereo not shown) [Example 49],0.92 µM,–
"O=S(=O)(NC(Cc1ccc(O)cc1)CN1CCN(CCCc2ccccc2)CC1)c1cccc2cnccc12 (stereo not shown) [Example 69, N-{1-(p-hydroxybenzyl)-2-[4-(3-phenylpropyl)piperazinyl]ethyl}-5-isoquinolinesulfonamide]",–,14 µM
"COc1ccc(N2CCN(CC(Cc3ccc(N)cc3)N(C)S(=O)(=O)c3cccc4cnccc34)CC2)cc1 (stereo not shown) [Example 128, N-{1-(p-aminobenzyl)-2-[4-(p-methoxyphenyl)piperazinyl]ethyl}-N-methyl-5-isoquinolinesulfonamide]",1.8 µM,–
"Cc1cccc(N2CCN(CC(Cc3ccc(O)cc3)N(C)S(=O)(=O)c3cccc4cnccc34)CC2)c1 (stereo not shown) [Example 51, N-{1-(p-hydroxybenzyl)-2-[4-(m-methylphenyl)piperazinyl]ethyl}-N-methyl-5-isoquinolinesulfonamide]",0.17 µM,–
"CC(C=Cc1ccncc1)NCCNS(=O)(=O)c1cccc2cnccc12 (stereo not shown) [Example 163, N-{2-[1-Methyl-3-(4-Pyridyl)-2-Propenylamino]ethyl}-5-Isoquinolinesulfonylamide]",31 µM,–
"CN(CC=Cc1ccc(Cl)cc1)CCNS(=O)(=O)c1cccc2cnccc12 [Example 190, N-[2-(4-Chloro-N-Methylcinnamylamino)ethyl]-5-Isoquinolinesulfonamide]",0.19 µM,–
COc1ccc(N2CCN(CC(Cc3ccc(OS(=O)(=O)c4cccc5cnccc45)cc3)NS(=O)(=O)c3cccc4cnccc34)CC2)cc1 (stereo not shown) [Example 52],9.9 µM,–
